Reference: PubChem BioAssay AID2060484 (Molecular Pharmacology Branch, DTP, NCI, 2025)

Tested on: SUM149PT spheroids with HUVEC/MSC, viability
Assay: Anticancer human tumor SUM149PT cell line growth inhibition [GQUAD];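 note: spheroids exposed to drugs for seven days before readout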;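 for viability, T/C: percent viability relative to DMSO vehicle control taken as 100%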
Conditions: for IC50: curve of first compound; for viability, T/C: stronger effect = lower value
In short: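 Viability of tumor cells grown as complex spheroids with endothelial and stromal cells, exposed to drug combinations. Top concentration at or near clinical Cmax (else 10 microM), diluted in half-log increments.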

[1] = second compound 0.0316 µM, first compound 0.0316 µM
[2] = second compound 0.0316 µM, first compound 0.1 µM
[3] = second compound 0.0316 µM, first compound 0.316 µM
[4] = second compound 0.0316 µM, first compound 1 µM
[5] = second compound 0.0316 µM, first compound 3.16 µM
[6] = second compound 0.0316 µM, first compound 10 µM
[7] = second compound 0.1 µM, first compound 0.0316 µM
[8] = second compound 0.1 µM, first compound 0.1 µM
[9] = second compound 0.1 µM, first compound 0.316 µM
[10] = second compound 0.1 µM, first compound 1 µM
[11] = second compound 0.1 µM, first compound 3.16 µM
[12] = second compound 0.1 µM, first compound 10 µM
[13] = second compound 0.316 µM, first compound 0.0316 µM
[14] = second compound 0.316 µM, first compound 0.1 µM
[15] = second compound 0.316 µM, first compound 0.316 µM
[16] = second compound 0.316 µM, first compound 1 µM
[17] = second compound 0.316 µM, first compound 3.16 µM
[18] = second compound 0.316 µM, first compound 10 µM
[19] = second compound 1 µM, first compound 0.0316 µM
[20] = second compound 1 µM, first compound 0.1 µM
[21] = second compound 1 µM, first compound 0.316 µM
[22] = second compound 1 µM, first compound 1 µM
[23] = second compound 1 µM, first compound 3.16 µM
[24] = second compound 1 µM, first compound 10 µM
[25] = second compound 3.16 µM, first compound 0.0316 µM
[26] = second compound 3.16 µM, first compound 0.1 µM
[27] = second compound 3.16 µM, first compound 0.316 µM
[28] = second compound 3.16 µM, first compound 1 µM
[29] = second compound 3.16 µM, first compound 3.16 µM
[30] = second compound 3.16 µM, first compound 10 µM
[31] = second compound 10 µM, first compound 0.0316 µM
[32] = second compound 10 µM, first compound 0.1 µM
[33] = second compound 10 µM, first compound 0.316 µM
[34] = second compound 10 µM, first compound 1 µM
[35] = second compound 10 µM, first compound 3.16 µM
[36] = second compound 10 µM, first compound 10 µM

## COc1ncnc(C2CC2)c1-c1ncc2cnn(Cc3ccc(-c4nc(C(F)(F)F)cn4C(C)C)cc3)c2n1 + Cc1cnc(CNC(=O)c2c(=O)c3ccc(N4CCCN(C)CC4)nc3n3c2sc2ccccc23)cn1
Second compound 0.0316 µM
  IC50: > 10000 nM
Second compound 0.1 µM
  IC50: 31.6 nM
Second compound 0.316 µM
  IC50: < 31.6 nM
Second compound 1 µM
  IC50: < 31.6 nM
Second compound 3.16 µM
  IC50: < 31.6 nM
Second compound 10 µM
  IC50: < 31.6 nM
[1]
  viability, T/C: 87.3%
[2]
  viability, T/C: 63.3%
[3]
  viability, T/C: 62.1%
[4]
  viability, T/C: 61.9%
[5]
  viability, T/C: 70.5%
[6]
  viability, T/C: 81.5%
[7]
  viability, T/C: 55.3%
[8]
  viability, T/C: 57.5%
[9]
  viability, T/C: 45.2%
[10]
  viability, T/C: 48.1%
[11]
  viability, T/C: 57.1%
[12]
  viability, T/C: 62.7%
[13]
  viability, T/C: 45.1%
[14]
  viability, T/C: 50.3%
[15]
  viability, T/C: 45.6%
[16]
  viability, T/C: 43.1%
[17]
  viability, T/C: 48.1%
[18]
  viability, T/C: 56.1%
[19]
  viability, T/C: 37.4%
[20]
  viability, T/C: 38.4%
[21]
  viability, T/C: 47.1%
[22]
  viability, T/C: 41.4%
[23]
  viability, T/C: 40%
[24]
  viability, T/C: 49.4%
[25]
  viability, T/C: 35%
[26]
  viability, T/C: 32.9%
[27]
  viability, T/C: 34.1%
[28]
  viability, T/C: 33.5%
[29]
  viability, T/C: 40%
[30]
  viability, T/C: 39.1%
[31]
  viability, T/C: 0.16%
[32]
  viability, T/C: 11.9%
[33]
  viability, T/C: 27.6%
[34]
  viability, T/C: 11%
[35]
  viability, T/C: 3.43%
[36]
  viability, T/C: 1.12%

## Cc1cccc(N(C)C(=O)C2C(O)CCN2c2nc(C)cc(C(F)(F)F)c2C#N)c1 (stereo not drawn) + Cc1[nH]c2ccc(F)cc2c1-c1nc2c3cccnc3c3ncccc3c2[nH]1
Second compound 0.0316 µM
  IC50: > 10000 nM
Second compound 0.1 µM
  IC50: > 10000 nM
Second compound 0.316 µM
  IC50: > 10000 nM
Second compound 1 µM
  IC50: > 10000 nM
Second compound 3.16 µM
  IC50: > 10000 nM
Second compound 10 µM
  IC50: > 10000 nM
[1]
  viability, T/C: 98.2%
[2]
  viability, T/C: 92.6%
[3]
  viability, T/C: 105%
[4]
  viability, T/C: 95.4%
[5]
  viability, T/C: 96.5%
[6]
  viability, T/C: 92.6%
[7]
  viability, T/C: 102%
[8]
  viability, T/C: 101%
[9]
  viability, T/C: 104%
[10]
  viability, T/C: 96.7%
[11]
  viability, T/C: 98%
[12]
  viability, T/C: 99%
[13]
  viability, T/C: 97.8%
[14]
  viability, T/C: 94.7%
[15]
  viability, T/C: 96%
[16]
  viability, T/C: 97.3%
[17]
  viability, T/C: 96.1%
[18]
  viability, T/C: 95.5%
[19]
  viability, T/C: 97.3%
[20]
  viability, T/C: 102%
[21]
  viability, T/C: 91.1%
[22]
  viability, T/C: 98%
[23]
  viability, T/C: 91.2%
[24]
  viability, T/C: 108%
[25]
  viability, T/C: 96.5%
[26]
  viability, T/C: 102%
[27]
  viability, T/C: 105%
[28]
  viability, T/C: 105%
[29]
  viability, T/C: 106%
[30]
  viability, T/C: 102%
[31]
  viability, T/C: 92.5%
[32]
  viability, T/C: 93%
[33]
  viability, T/C: 105%
[34]
  viability, T/C: 84.8%
[35]
  viability, T/C: 103%
[36]
  viability, T/C: 96.7%

## Nc1ccn(C2OC(CO)C(O)C2(F)F)c(=O)n1 (stereo not drawn) + Cc1cnc(CNC(=O)c2c(=O)c3ccc(N4CCCN(C)CC4)nc3n3c2sc2ccccc23)cn1
Second compound 0.0316 µM
  IC50: 49.4 nM
Second compound 0.1 µM
  IC50: < 31.6 nM
Second compound 0.316 µM
  IC50: < 31.6 nM
Second compound 1 µM
  IC50: < 31.6 nM
Second compound 3.16 µM
  IC50: < 31.6 nM
Second compound 10 µM
  IC50: < 31.6 nM
[1]
  viability, T/C: 62.7%
[2]
  viability, T/C: 29.1%
[3]
  viability, T/C: 22.4%
[4]
  viability, T/C: 17.9%
[5]
  viability, T/C: 17.5%
[6]
  viability, T/C: 12.2%
[7]
  viability, T/C: 50%
[8]
  viability, T/C: 31.6%
[9]
  viability, T/C: 24.5%
[10]
  viability, T/C: 18.6%
[11]
  viability, T/C: 16.1%
[12]
  viability, T/C: 14.5%
[13]
  viability, T/C: 45.5%
[14]
  viability, T/C: 29.5%
[15]
  viability, T/C: 21.3%
[16]
  viability, T/C: 17.3%
[17]
  viability, T/C: 17.8%
[18]
  viability, T/C: 14%
[19]
  viability, T/C: 40.4%
[20]
  viability, T/C: 28.7%
[21]
  viability, T/C: 20.1%
[22]
  viability, T/C: 17.2%
[23]
  viability, T/C: 14.6%
[24]
  viability, T/C: 14.3%
[25]
  viability, T/C: 34.8%
[26]
  viability, T/C: 27.1%
[27]
  viability, T/C: 19.8%
[28]
  viability, T/C: 17.1%
[29]
  viability, T/C: 17.8%
[30]
  viability, T/C: 14.5%
[31]
  viability, T/C: 8.05%
[32]
  viability, T/C: 9.51%
[33]
  viability, T/C: 2.05%
[34]
  viability, T/C: 0.66%
[35]
  viability, T/C: 1.03%
[36]
  viability, T/C: 2.03%

## CC1COCCN1c1cc(C2(S(C)(=N)=O)CC2)nc(-c2ccnc3[nH]ccc23)n1 (stereo not drawn) + Cc1[nH]c2ccc(F)cc2c1-c1nc2c3cccnc3c3ncccc3c2[nH]1
Second compound 0.0316 µM
  IC50: 2380 nM
Second compound 0.1 µM
  IC50: 2650 nM
Second compound 0.316 µM
  IC50: 2830 nM
Second compound 1 µM
  IC50: 2630 nM
Second compound 3.16 µM
  IC50: 2450 nM
Second compound 10 µM
  IC50: 2170 nM
[1]
  viability, T/C: 95.9%
[2]
  viability, T/C: 93.6%
[3]
  viability, T/C: 99.7%
[4]
  viability, T/C: 79.5%
[5]
  viability, T/C: 40.5%
[6]
  viability, T/C: 17.3%
[7]
  viability, T/C: 112%
[8]
  viability, T/C: 99.5%
[9]
  viability, T/C: 86.7%
[10]
  viability, T/C: 89.2%
[11]
  viability, T/C: 41.9%
[12]
  viability, T/C: 22.6%
[13]
  viability, T/C: 103%
[14]
  viability, T/C: 105%
[15]
  viability, T/C: 89.8%
[16]
  viability, T/C: 83.6%
[17]
  viability, T/C: 45%
[18]
  viability, T/C: 20.6%
[19]
  viability, T/C: 91.9%
[20]
  viability, T/C: 100%
[21]
  viability, T/C: 97.1%
[22]
  viability, T/C: 83.9%
[23]
  viability, T/C: 43.5%
[24]
  viability, T/C: 19.6%
[25]
  viability, T/C: 86.5%
[26]
  viability, T/C: 84.9%
[27]
  viability, T/C: 89.7%
[28]
  viability, T/C: 75.4%
[29]
  viability, T/C: 42.8%
[30]
  viability, T/C: 19%
[31]
  viability, T/C: 103%
[32]
  viability, T/C: 96.5%
[33]
  viability, T/C: 94.3%
[34]
  viability, T/C: 79.5%
[35]
  viability, T/C: 35.6%
[36]
  viability, T/C: 18.3%
